Results on seven molecules are retold here after ChEMBL document CHEMBL1150904, “Cytotoxic isoflavans from Eysenhardtia polystachya” (1998).

Experiment [1] concerns KB. Put plainly: Cytotoxicity against human KB cells after 72 hrs. It is filed as functional. The note with it: read-out: ED50 (the source's name).
In experiment [2] the test system is Spodoptera frugiperda. Put plainly: Insecticidal activity against Spodoptera frugiperda. The class given is functional.

The structures appear in SMILES notation. Values after ≈ are worked out from the molar mass of the structure shown.

As for `COc1cc(OC)c(-c2coc3cc(O)ccc3c2=O)cc1OC`, the EC50 in experiment [1] was more than 4 µg/mL.

Regarding `COc1cc([C@H]2COc3c(ccc(O)c3OC)C2)c(OC)c(OC)c1OC`, in experiment [1], the EC50 is 3.8 µg/mL (≈ 10.1 µM). This molecule yielded an LC50 in experiment [2] of more than 1000 ng/cm2.

As for `COc1cc([C@H]2COc3c(ccc(O)c3OC)C2)c(OC)c(O)c1OC`, the EC50 in experiment [1] came out at 3 µg/mL (≈ 8.28 µM). Besides, in experiment [2], the LC50 is more than 1000 ng/cm2.

Take `COc1ccc2c(c1OC)OC[C@H]1c3cc4c(cc3O[C@@H]21)OCO4`: the EC50 in experiment [1] is more than 4 µg/mL.

Regarding `COc1cc2c(cc1-c1coc3cc(O)ccc3c1=O)OCO2` [CUNEATIN], the EC50 in experiment [1] is more than 4 µg/mL.

Consider `COc1ccc(C2COc3c(ccc(O)c3OC)C2)c(O)c1OC` (stereo not given) [ISODUARTIN], for which, in experiment [1], the EC50 stood at 2.63 µg/mL (≈ 7.91 µM). This molecule also yielded an LC50 in experiment [2] of more than 1000 ng/cm2.

`CC[C@H](/C=C/[C@@H](C)[C@H]1CC[C@H]2[C@@H]3CC=C4C[C@@H](O)CC[C@]4(C)[C@H]3CC[C@]12C)C(C)C` [STIGMASTEROL]: the EC50 in experiment [1] was more than 4 µg/mL.
